Test results from the NIST ThermoML archive (doi:10.1016/j.fluid.2010.08.004).
± gives the expanded uncertainty stated by the source.

Test: mn = molality of the nth substance listed, in mol/kg
Conditions: 101.3 kPa, Liquid; for speed of sound: Single path-length method; for mass density: Vibrating tube method

Question: What does the source list for CCCCCCCn1cc[n+](C)c1.[Br-] [1-heptyl-3-methylimidazolium bromide] + O?
Answer: speed of sound (288.15 K, m1 = 0.0096): 1468.2 ± 0.45 m/s; speed of sound (288.15 K, m1 = 0.0113): 1468.5 ± 0.45 m/s; speed of sound (288.15 K, m1 = 0.0151): 1469.1 ± 0.45 m/s; speed of sound (288.15 K, m1 = 0.0226): 1470.4 ± 0.45 m/s; speed of sound (288.15 K, m1 = 0.0306): 1471.8 ± 0.46 m/s; speed of sound (288.15 K, m1 = 0.0384): 1472.9 ± 0.46 m/s; speed of sound (288.15 K, m1 = 0.0571): 1476.1 ± 0.46 m/s; speed of sound (288.15 K, m1 = 0.0778): 1479.3 ± 0.47 m/s; speed of sound (288.15 K, m1 = 0.097): 1482.3 ± 0.47 m/s; speed of sound (288.15 K, m1 = 0.1158): 1485.2 ± 0.47 m/s; speed of sound (288.15 K, m1 = 0.1383): 1488.7 ± 0.48 m/s; speed of sound (288.15 K, m1 = 0.1566): 1491.5 ± 0.48 m/s; speed of sound (288.15 K, m1 = 0.174): 1494 ± 0.49 m/s; mass density (288.15 K, m1 = 0.0096): 999.568 ± 0.041 kg/m3; mass density (288.15 K, m1 = 0.0113): 999.656 ± 0.041 kg/m3; mass density (288.15 K, m1 = 0.0151): 999.839 ± 0.041 kg/m3; mass density (288.15 K, m1 = 0.0226): 1000.2 ± 0.041 kg/m3; mass density (288.15 K, m1 = 0.0306): 1000.59 ± 0.041 kg/m3; mass density (288.15 K, m1 = 0.0384): 1000.96 ± 0.042 kg/m3; mass density (288.15 K, m1 = 0.0571): 1001.85 ± 0.043 kg/m3; mass density (288.15 K, m1 = 0.0778): 1002.84 ± 0.044 kg/m3; mass density (288.15 K, m1 = 0.097): 1003.74 ± 0.045 kg/m3; mass density (288.15 K, m1 = 0.1158): 1004.62 ± 0.046 kg/m3; mass density (288.15 K, m1 = 0.1383): 1005.67 ± 0.048 kg/m3; mass density (288.15 K, m1 = 0.1566): 1006.51 ± 0.049 kg/m3; mass density (288.15 K, m1 = 0.174): 1007.32 ± 0.05 kg/m3; speed of sound (293.15 K, m1 = 0.0096): 1484.2 ± 0.46 m/s; speed of sound (293.15 K, m1 = 0.0113): 1484.4 ± 0.45 m/s; speed of sound (293.15 K, m1 = 0.0151): 1485 ± 0.45 m/s; speed of sound (293.15 K, m1 = 0.0226): 1486.1 ± 0.45 m/s; speed of sound (293.15 K, m1 = 0.0306): 1487.3 ± 0.45 m/s; speed of sound (293.15 K, m1 = 0.0384): 1488.5 ± 0.46 m/s; speed of sound (293.15 K, m1 = 0.0571): 1491.2 ± 0.46 m/s; speed of sound (293.15 K, m1 = 0.0778): 1494.3 ± 0.47 m/s; speed of sound (293.15 K, m1 = 0.097): 1497 ± 0.47 m/s; speed of sound (293.15 K, m1 = 0.1158): 1499.7 ± 0.47 m/s; speed of sound (293.15 K, m1 = 0.1383): 1502.8 ± 0.48 m/s; speed of sound (293.15 K, m1 = 0.1566): 1505.3 ± 0.48 m/s; speed of sound (293.15 K, m1 = 0.174): 1507.6 ± 0.49 m/s; mass density (293.15 K, m1 = 0.0096): 998.662 ± 0.045 kg/m3; mass density (293.15 K, m1 = 0.0113): 998.746 ± 0.041 kg/m3; mass density (293.15 K, m1 = 0.0151): 998.926 ± 0.041 kg/m3; mass density (293.15 K, m1 = 0.0226): 999.279 ± 0.041 kg/m3; mass density (293.15 K, m1 = 0.0306): 999.656 ± 0.041 kg/m3; mass density (293.15 K, m1 = 0.0384): 1000.03 ± 0.041 kg/m3; mass density (293.15 K, m1 = 0.0571): 1000.9 ± 0.042 kg/m3; mass density (293.15 K, m1 = 0.0778): 1001.86 ± 0.044 kg/m3; mass density (293.15 K, m1 = 0.097): 1002.74 ± 0.045 kg/m3; mass density (293.15 K, m1 = 0.1158): 1003.6 ± 0.046 kg/m3; mass density (293.15 K, m1 = 0.1383): 1004.63 ± 0.047 kg/m3; mass density (293.15 K, m1 = 0.1566): 1005.45 ± 0.048 kg/m3; mass density (293.15 K, m1 = 0.174): 1006.24 ± 0.049 kg/m3; speed of sound (298.15 K, m1 = 0.0096): 1498.3 ± 0.46 m/s; speed of sound (298.15 K, m1 = 0.0113): 1498.5 ± 0.45 m/s; speed of sound (298.15 K, m1 = 0.0151): 1499 ± 0.45 m/s; speed of sound (298.15 K, m1 = 0.0226): 1500.1 ± 0.45 m/s; speed of sound (298.15 K, m1 = 0.0306): 1501.2 ± 0.45 m/s; speed of sound (298.15 K, m1 = 0.0384): 1502.2 ± 0.46 m/s; speed of sound (298.15 K, m1 = 0.0571): 1504.7 ± 0.46 m/s; speed of sound (298.15 K, m1 = 0.0778): 1507.5 ± 0.47 m/s; speed of sound (298.15 K, m1 = 0.097): 1509.9 ± 0.47 m/s; speed of sound (298.15 K, m1 = 0.1158): 1512.3 ± 0.47 m/s; speed of sound (298.15 K, m1 = 0.1383): 1515.2 ± 0.48 m/s; speed of sound (298.15 K, m1 = 0.1566): 1517.4 ± 0.48 m/s; speed of sound (298.15 K, m1 = 0.174): 1519.5 ± 0.49 m/s; mass density (298.15 K, m1 = 0.0096): 997.491 ± 0.044 kg/m3; mass density (298.15 K, m1 = 0.0113): 997.574 ± 0.041 kg/m3; mass density (298.15 K, m1 = 0.0151): 997.75 ± 0.041 kg/m3; mass density (298.15 K, m1 = 0.0226): 998.097 ± 0.041 kg/m3; mass density (298.15 K, m1 = 0.0306): 998.464 ± 0.042 kg/m3; mass density (298.15 K, m1 = 0.0384): 998.827 ± 0.042 kg/m3; mass density (298.15 K, m1 = 0.0571): 999.682 ± 0.042 kg/m3; mass density (298.15 K, m1 = 0.0778): 1000.62 ± 0.043 kg/m3; mass density (298.15 K, m1 = 0.097): 1001.49 ± 0.044 kg/m3; mass density (298.15 K, m1 = 0.1158): 1002.33 ± 0.045 kg/m3; mass density (298.15 K, m1 = 0.1383): 1003.34 ± 0.047 kg/m3; mass density (298.15 K, m1 = 0.1566): 1004.14 ± 0.048 kg/m3; mass density (298.15 K, m1 = 0.174): 1004.91 ± 0.049 kg/m3; speed of sound (303.15 K, m1 = 0.0096): 1510.5 ± 0.46 m/s; speed of sound (303.15 K, m1 = 0.0113): 1510.8 ± 0.45 m/s; speed of sound (303.15 K, m1 = 0.0151): 1511.2 ± 0.45 m/s; speed of sound (303.15 K, m1 = 0.0226): 1512.2 ± 0.45 m/s; speed of sound (303.15 K, m1 = 0.0306): 1513.1 ± 0.45 m/s; speed of sound (303.15 K, m1 = 0.0384): 1514.1 ± 0.46 m/s; speed of sound (303.15 K, m1 = 0.0571): 1516.3 ± 0.46 m/s; speed of sound (303.15 K, m1 = 0.0778): 1518.9 ± 0.47 m/s; speed of sound (303.15 K, m1 = 0.097): 1521.1 ± 0.47 m/s; speed of sound (303.15 K, m1 = 0.1158): 1523.3 ± 0.47 m/s; speed of sound (303.15 K, m1 = 0.1383): 1525.8 ± 0.48 m/s; speed of sound (303.15 K, m1 = 0.1566): 1527.9 ± 0.48 m/s; speed of sound (303.15 K, m1 = 0.174): 1529.8 ± 0.49 m/s; mass density (303.15 K, m1 = 0.0096): 996.083 ± 0.044 kg/m3; mass density (303.15 K, m1 = 0.0113): 996.165 ± 0.042 kg/m3; mass density (303.15 K, m1 = 0.0151): 996.337 ± 0.042 kg/m3; mass density (303.15 K, m1 = 0.0226): 996.677 ± 0.042 kg/m3; mass density (303.15 K, m1 = 0.0306): 997.04 ± 0.042 kg/m3; mass density (303.15 K, m1 = 0.0384): 997.395 ± 0.042 kg/m3; mass density (303.15 K, m1 = 0.0571): 998.23 ± 0.043 kg/m3; mass density (303.15 K, m1 = 0.0778): 999.158 ± 0.043 kg/m3; mass density (303.15 K, m1 = 0.097): 1000.01 ± 0.044 kg/m3; mass density (303.15 K, m1 = 0.1158): 1000.83 ± 0.045 kg/m3; mass density (303.15 K, m1 = 0.1383): 1001.81 ± 0.046 kg/m3; mass density (303.15 K, m1 = 0.1566): 1002.6 ± 0.047 kg/m3; mass density (303.15 K, m1 = 0.174): 1003.35 ± 0.048 kg/m3; speed of sound (308.15 K, m1 = 0.0096): 1521.1 ± 0.45 m/s; speed of sound (308.15 K, m1 = 0.0113): 1521.3 ± 0.45 m/s; speed of sound (308.15 K, m1 = 0.0151): 1521.7 ± 0.45 m/s; speed of sound (308.15 K, m1 = 0.0226): 1522.6 ± 0.45 m/s; speed of sound (308.15 K, m1 = 0.0306): 1523.5 ± 0.45 m/s; speed of sound (308.15 K, m1 = 0.0384): 1524.4 ± 0.46 m/s; speed of sound (308.15 K, m1 = 0.0571): 1526.4 ± 0.46 m/s; speed of sound (308.15 K, m1 = 0.0778): 1528.6 ± 0.46 m/s; speed of sound (308.15 K, m1 = 0.097): 1530.7 ± 0.47 m/s; speed of sound (308.15 K, m1 = 0.1158): 1532.6 ± 0.47 m/s; speed of sound (308.15 K, m1 = 0.1383): 1534.9 ± 0.48 m/s; speed of sound (308.15 K, m1 = 0.1566): 1536.7 ± 0.48 m/s; speed of sound (308.15 K, m1 = 0.174): 1538.4 ± 0.49 m/s; mass density (308.15 K, m1 = 0.0096): 994.457 ± 0.042 kg/m3; mass density (308.15 K, m1 = 0.0113): 994.539 ± 0.042 kg/m3; mass density (308.15 K, m1 = 0.0151): 994.708 ± 0.042 kg/m3; mass density (308.15 K, m1 = 0.0226): 995.043 ± 0.042 kg/m3; mass density (308.15 K, m1 = 0.0306): 995.398 ± 0.043 kg/m3; mass density (308.15 K, m1 = 0.0384): 995.747 ± 0.043 kg/m3; mass density (308.15 K, m1 = 0.0571): 996.569 ± 0.043 kg/m3; mass density (308.15 K, m1 = 0.0778): 997.477 ± 0.044 kg/m3; mass density (308.15 K, m1 = 0.097): 998.309 ± 0.044 kg/m3; mass density (308.15 K, m1 = 0.1158): 999.119 ± 0.045 kg/m3; mass density (308.15 K, m1 = 0.1383): 1000.08 ± 0.045 kg/m3; mass density (308.15 K, m1 = 0.1566): 1000.86 ± 0.046 kg/m3; mass density (308.15 K, m1 = 0.174): 1001.6 ± 0.048 kg/m3
